{"source": "patent US9512095B2", "about": "“Polymorph forms of desazadesferrithiocin analogs” (Ferrokin Biosciences, Inc., priority 2013, dated 2016)", "key": {"[1]": {"assay": "Human pharmacokinetics: open-label, randomized relative bioavailability study of Compounds 1 and 3 (plasma total, unbound and iron bound Compound 2)", "assay_type": "in vivo", "settings": "healthy adults, oral capsules; plasma Compound 2; relative to Compound 3, see Table 14", "method": "The purpose of this Example is to characterize the pharmacokinetic profiles of Compound 1 (disodium salt) and its magnesium hydroxide salt counterpart, Compound 3:\nThis human study is part of an open-label, randomized, single dose, 3-period, relative bioavailability study in up to 28 healthy adults 18-65 years of age inclusive, investigating the pharmacokinetics, safety, and tolerability of Compounds 1 and 3. In this study, each study compound is administered as a single dose of 36.2 mg/kg/day or 18.1 mg/kg/day, respectively (as free acid), and as 2 doses of 36.2 mg/kg or 18.1 mg/kg, respectively (as free acid), given 12 hours apart. Table 13 provides dosages relative to free acid content.\nThe magnesium hydroxide salt (Compound 3) is administered as oral capsules in the following strengths: 50, 100, 200, 375 and 500 mg. The disodium salt (Compound 1) is administered as oral capsules in the following strengths: 54.1, 272.8 and 408.7 mg.\nThere will be 3 treatment periods in this study and 4 possible treatments. […]\nActual pharmacokinetic blood sample collection times versus time of dosing will be monitored. […]"}, "[2]": {"assay": "Form inter-conversion by stirring in TBME/ethanol/water (20/5/1, v/v/v)", "assay_type": "physicochemical", "settings": "TBME/ethanol/water (20/5/1, v/v/v) at 18-23° C. for 4 days", "method": "A mixture of Forms A, B, C, and D (present in equal amounts) of Compound 1 was stirred in TBME/ethanol/water (20/5/1, v/v/v) at 18-23° C. for 4 days.\nA reaction vessel was charged with a mixture of Forms A-D of Compound 1 (25 mg, 1.0 wt.). A solution of TBME/EtOH/water (20/5/1, 10 vol) was added, and was stirred at 18-23° C. for 4 days. The solid was isolated by filtration, washed with recycled mother liquors, and dried under vacuum under a N2 atmosphere.\nA reaction vessel was charged with Form A of Compound 1 (25 mg, 1.0 wt.). A solution of TBME/EtOH/water (20/5/1, 10 vol) was added, and was stirred at 18-23° C. for 4 days. The solid was isolated by filtration, washed with recycled mother liquors, and dried under vacuum under a N2 atmosphere.\nA reaction vessel was charged with Form B of Compound 1 (25 mg, 1.0 wt.). A solution of TBME/EtOH/water (20/5/1, 10 vol) was added, and was stirred at 18-23° C. for 4 days. The solid was isolated by filtration, washed with recycled mother liquors, and dried under vacuum under a N2 atmosphere.\nA reaction vessel was charged with Form C of Compound 1 (25 mg, 1.0 wt.). A solution of TBME/EtOH/water (20/5/1, 10 vol) was added, and was stirred at 18-23° C. for 4 days. The solid was isolated by filtration, washed with recycled mother liquors, and dried under vacuum under a N2 atmosphere.\nA reaction vessel was charged with Form D of Compound 1 (25 mg, 1.0 wt.). A solution of TBME/EtOH/water (20/5/1, 10 vol) was added, and was stirred at 18-23° C. for 4 days. The solid was isolated by filtration, washed with recycled mother liquors, and dried under vacuum under a N2 atmosphere."}, "[3]": {"assay": "Drying of Form A under vacuum at elevated temperature (weight loss, XRPD, HPLC/1H NMR)", "assay_type": "physicochemical", "method": "Form A (1.0 g) was dried at 60° C. under reduced pressure for 24 h. During this time the sample decreased in weight by −7.3% w/w.\nA sample of Form A was dried for 48 h under vacuum at 60° C. and reweighed. The material decreased in weight by 9.30% w/w.\nThe reactions conditions were repeated on a 1.0 g scale: a sample of Form A was dried for 24 hr under vacuum at 60° C. and reweighed. The material decreased in weight by 7.30% w/w. […] The material was allowed to cool to ambient temperature under vacuum before releasing the vacuum with nitrogen and transferring the Form D into a poly-tub under nitrogen."}, "[4]": {"assay": "Humidity exposure / comparative hygroscopicity study of solid forms (weight change, appearance, XRPD)", "assay_type": "physicochemical"}, "[5]": {"assay": "Humidity exposure / comparative hygroscopicity study of solid forms (weight change, appearance, XRPD)", "assay_type": "physicochemical", "settings": "for XRPD form: 48 hrs; for XRPD (final form): 18-23° C., 48 h", "method": "X-Ray powder diffraction (XRPD) analysis was carried out using a Bruker D2 Phaser powder diffractometer employing a LynxEye detector. The samples underwent minimum preparation but, if necessary they were milled in a pestle and mortar before acquisition.\nThe samples were continuously spun during data collection and scanned using a step size of 0.02° two theta (2θ) between the range of 4°-40° two theta and a count time of 10 seconds per step. Data was processed using Bruker Diffrac. Suite.\nSamples of Form D were placed in humidity chambers at 45%, 60% and 75% RH at 18-23° C. and their weight changes were monitored at intervals up to 48 h.\nAccurately weighed samples of Form D were placed in humidity chambers at 45%, 60% and 75% R.H. and monitored for weight changes over 48 h."}, "[6]": {"settings": "75% relative humidity (RH) at 15-25° C. for 1-2 days"}}, "note": "“Also recorded” adds a separate entry of the source."}
{"smiles": "COCCOCCOCCOc1cccc(C2=N[C@@](C)(C(=O)[O-])CS2)c1[O-].[Na+].[Na+]", "note": "[Compound 1, (S)-2-(2-hydroxy-3-(2-(2-(2-methoxyethoxy)ethoxy)ethoxy)phenyl)-4-methyl-4,5-dihydrothiazole-4-carboxylate disodium]", "values": [{"measurement": "AUC higher than Compound 3", "setting": "[1]", "value": "~22", "unit": "%"}, {"measurement": "Cmax higher than Compound 3", "setting": "[1]", "value": "~35", "unit": "%"}]}
{"smiles": "COCCOCCOCCOc1cccc(C2=N[C@@](C)(C(=O)[O-])CS2)c1[O-].[Na+].[Na+]", "note": "[Form A, (S)-2-(2-hydroxy-3-(2-(2-(2-methoxyethoxy)ethoxy)ethoxy)phenyl)-4-methyl-4,5-dihydrothiazole-4-carboxylate disodium Form A polymorph]", "values": [{"measurement": "Output form after stirring in solvent", "setting": "[2]", "value": "remained Form A"}, {"measurement": "Form after drying", "setting": "[3]; 40° C. under vacuum for 48 h", "value": "partial transformation of Form A to Form D"}, {"measurement": "Form after drying", "setting": "[3]; 60° C. under vacuum for 24 hours", "value": "converted to Form D; also recorded: converted into Form D"}, {"measurement": "Chemical stability on drying (HPLC and 1H NMR)", "setting": "[3]; 60° C. under vacuum for 48 h", "value": "decomposition had not occurred"}, {"measurement": "Decrease in weight on drying", "setting": "[3]; 60° C. under vacuum for 48 h", "value": 9.30, "unit": "% w/w"}, {"measurement": "Form after drying (XRPD)", "setting": "[3]; 60° C. under vacuum for 48 h", "value": "Form D"}, {"measurement": "Form after exposure to humidity", "setting": "[4]; 43% RH at 50° C. for 5 days", "value": "remained as Form A"}, {"measurement": "Form after exposure to humidity", "setting": "[4]; [6]", "value": "remained as Form A"}]}
{"smiles": "COCCOCCOCCOc1cccc(C2=N[C@@](C)(C(=O)[O-])CS2)c1[O-].[Na+].[Na+]", "note": "[Form B, (S)-2-(2-hydroxy-3-(2-(2-(2-methoxyethoxy)ethoxy)ethoxy)phenyl)-4-methyl-4,5-dihydrothiazole-4-carboxylate disodium Form B polymorph]", "values": [{"measurement": "Output form after stirring in solvent", "setting": "[2]", "value": "converted into Form A"}, {"measurement": "Form after exposure to humidity", "setting": "[4]; [6]", "value": "re-generated Form A"}]}
{"smiles": "COCCOCCOCCOc1cccc(C2=N[C@@](C)(C(=O)[O-])CS2)c1[O-].[Na+].[Na+]", "note": "[Form C, (S)-2-(2-hydroxy-3-(2-(2-(2-methoxyethoxy)ethoxy)ethoxy)phenyl)-4-methyl-4,5-dihydrothiazole-4-carboxylate disodium Form C polymorph]", "values": [{"measurement": "Output form after stirring in solvent", "setting": "[2]", "value": "converted into Form A"}, {"measurement": "Form after exposure to humidity", "setting": "[4]; 75% RH at 15-25° C. for 22 h", "value": "re-generated Form A"}, {"measurement": "Weight gain on exposure to humidity", "setting": "[4]; 75% RH at 15-25° C. for 22 h", "value": 18.5, "unit": "% w/w"}]}
{"smiles": "COCCOCCOCCOc1cccc(C2=N[C@@](C)(C(=O)[O-])CS2)c1[O-].[Na+].[Na+]", "note": "[Form D, (S)-2-(2-hydroxy-3-(2-(2-(2-methoxyethoxy)ethoxy)ethoxy)phenyl)-4-methyl-4,5-dihydrothiazole-4-carboxylate disodium Form D polymorph]", "values": [{"measurement": "XRPD form", "setting": "[5]; 45% R.H.", "value": "Form A"}, {"measurement": "XRPD form", "setting": "[5]; 60% R.H.", "value": "Form A"}, {"measurement": "XRPD (final form)", "setting": "[5]; 60% RH", "value": "Form A"}, {"measurement": "XRPD form", "setting": "[5]; 75% R.H.", "value": "Form A"}, {"measurement": "XRPD (final form)", "setting": "[5]; 75% RH", "value": "Form A"}, {"measurement": "Form after exposure to humidity", "setting": "[5]; exposed to ≧43% relative humidity", "value": "reverts to Form A"}, {"measurement": "Output form after stirring in solvent", "setting": "[2]", "value": "converted into Form A"}, {"measurement": "XRPD (final form)", "setting": "[4]; 43% RH, 18-23° C., 48 h", "value": "Form A"}]}
